We go through 59 compounds from patent publication US10561666B2, “Amido compounds as RORγt modulators and uses thereof” (New York University, priority 2010, dated 2020).

The assay concerns the target RORγt (Mus musculus, UniProt P51450, T352K). The experiment in a line: RORγt S2 cell Gal4-luciferase reporter assay. To be noted: for Emax: read-out: Efficacy (%). A general note: Reporter assays use an easily measured gene product as a stand-in for the process of interest.
Setting [1] is: IC50(μM), Drosophila S2 cells, Gal4-RORγt luciferase reporter, 20 hr.
Where [2] appears, read: S2 cell RORg IC50 μM, S2 cell reporter assay, listed for comparison.

Chain of RORγt (P51450 with tags, fused parts or gaps T352K): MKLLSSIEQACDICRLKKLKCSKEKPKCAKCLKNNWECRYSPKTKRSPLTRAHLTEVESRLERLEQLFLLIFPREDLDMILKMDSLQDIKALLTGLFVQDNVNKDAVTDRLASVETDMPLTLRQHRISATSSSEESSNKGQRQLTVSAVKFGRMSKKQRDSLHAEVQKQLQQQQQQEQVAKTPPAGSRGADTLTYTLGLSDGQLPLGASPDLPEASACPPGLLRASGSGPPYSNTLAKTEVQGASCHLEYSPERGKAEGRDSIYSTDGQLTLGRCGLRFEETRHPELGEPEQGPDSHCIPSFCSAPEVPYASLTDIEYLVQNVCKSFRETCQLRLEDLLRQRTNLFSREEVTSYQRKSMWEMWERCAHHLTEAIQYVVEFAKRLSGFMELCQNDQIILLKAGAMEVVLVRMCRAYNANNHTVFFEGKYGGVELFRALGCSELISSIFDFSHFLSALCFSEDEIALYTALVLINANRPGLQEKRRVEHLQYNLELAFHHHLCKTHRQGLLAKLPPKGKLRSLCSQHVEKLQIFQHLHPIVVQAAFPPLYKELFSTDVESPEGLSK
Text: Methods: The Drosophila S2 cell line was originally purchased from Invitrogen and was maintained in Schneider's medium supplemented with 10% heat-inactivated bovine fetal calf serum and antibiotics (Invitrogen). […] The resulting chimeric gene was subcloned into the copper inducible pMT/V5-His A vector (available from Invitrogen).
In order to generate stable cell lines, cells were co-transfected with pMT-G4DBD-RORγt, pMT-G4DBD-RORα, pMT-G4DBD-DHR3, or pMT-G4DBDVP16 and pHygro plasmids (Invitrogen) and screened for resistant colonies in the presence of hygromycin (0.3 mg/mL).
Methods: 600 G4DBD-RORγ/γt-luc reporter (#25) or G4DBD-VP16-luc reporter cells were distributed into each well of 1,536-well white bottom plates in 4 μl S2 cell culture volume containing hygromicin (300 μg/ml) and puromycin (2 μg/ml). […] After one-hour incubation, 1 μl of culture medium solution containing copper sulfate (to final 0.7 mM) and 10 μM RORγ/γt antagonists were added to each well. After 20-hour incubation at ambient temperature, 1.5 μl firefly luciferase detection mix was added and the luciferase activities were measured in 10 min. ViewLux luminometers were used for measuring luciferase signal.
Since their cognate DNA binding sites were not well characterized, the DNA binding domains (DBD) of RORγ/γt, RORα (mouse homolog for POPγ), and DHR3 (Drosophila orthologue for ROR family proteins) were replaced with the heterologous yeast GAL4 DBD. The transcriptionally active domain of general transcriptional activator VP16 was also fused with GAL4 DBD. The GAL4 fusion constructs were placed under the control of a copper inducible promoter, and stable S2 cell lines with genomic integration of these four reporter constructs were generated. The copper inducible promoter ensures tight regulation of GAL4-fusion protein expression and it allows small molecules to get into the cells prior to protein induction, thus increasing their effects on GAL4 reporters. The stable reporter cell lines also encode the firefly luciferase reporter, whose expression is regulated by five copies of the GAL4 binding site enhancer (UAS), along with the pol III-driven Renilla luciferase reporter.
A cell-based reporter assay was used to detect RORγt-mediated activity. This assay, called RORγt□ employed Drosophila Schneider cells that were stably transfected with two vectors: a gene expressing a fusion of the Gal4 DNA binding domain and RORγt transactivation domain under the control of the metallothionine promoter and a Photinus luciferase reporter regulated by the Gal4 binding site enhancer, UAS. […] Cells (600/well) were dispensed into white solid 1536-well plates (Greiner) using a solenoid-based dispenser. Following transfer of 23 nL compound or DMSO vehicle by a pin tool, the plates were incubated 1 hr at ambient temperature, and 1 uL/well copper sulfate (700 uM final concentration) was added. The plates were centrifuged 15 s at 1000 RPM and incubated 20 hr at ambient temperature. After addition of 1.5 uL Photinus luciferase detection reagent, the plates were incubated 10 min at ambient temperature and then read by a ViewLux (Perkin Elmer) to detect luminescence. […] Efficacy is expressed as % of the maximal response of control inhibitor (Digoxin), set at 100%.

The term IC50 denotes the concentration that inhibits the measured activity by half. The low end stands for higher potency, the high end for lower potency. In the case of “1-(3,5-Dimethylpiperidin-1-yl)-3-(2-hydroxy-4,6-dimethoxyphenyl)-3-(3-(methylsulfonyl)phenyl)propan-1-one [Compound 83]”, the “Efficacy (%)” value (% of the maximal response of control inhibitor (Digoxin), set at 100%) is reported as −93.79%. Under “Drosophila S2 cells, Gal4-RORγt luciferase reporter, 20 hr”, the 50% inhibitory concentration (IC50) fell in the range of 1 to 10 µM. `COc1cc(O)c(C(CC(=O)N2CCCC(C)C2)c2ccc3c(c2)OCO3)c(OC)c1` (stereo not drawn) [Compound 3]: the Emax came out at 98.8%. The compound also showed an IC50 under setting [1] of 1 to 10 µM. `COc1cc(O)c(C(CC(=O)N2CCOCC2)c2ccc3c(c2)OCO3)c(OC)c1` (stereo not drawn) [Compound 4]: the Emax was determined as 20.2%. This compound displayed a concentration for half-maximal inhibition (IC50) under setting [1] of 11 to 50 µM.

As to `COc1cc(O)c(C(CC(=O)N2CCCCC2)c2ccc3c(c2)OCO3)c(OC)c1` (stereo not drawn) [Compound 5], the Emax turned out to be 90.4%. The IC50 under setting [1] lay in the range of 11 to 50 µM. The matching figures for `COc1cc(O)c(C(CC(=O)N2CCCC(C#N)C2)c2ccc3c(c2)OCO3)c(OC)c1` (stereo not drawn) [Compound 6]: 66% and 11 to 50 µM. The matching figures for `CCC1CCCN(C(=O)CC(c2ccc3c(c2)OCO3)c2c(O)cc(OC)cc2OC)C1` (stereo not drawn) [Compound 7]: 96.2% and 1 to 10 µM.

For the compound `CCCC1CCN(C(=O)CC(c2ccc3c(c2)OCO3)c2c(O)cc(OC)cc2OC)C1` (stereo not drawn) [Compound 9], the Emax stood at 63.5%. Under setting [1], this compound returned a half-maximal inhibitory concentration (IC50) of 11 to 50 µM. The matching figures for `CCC1(CC)CCN(C(=O)CC(c2ccc3c(c2)OCO3)c2c(O)cc(OC)cc2OC)C1` (stereo not drawn) [Compound 10]: 89% and 11 to 50 µM. For `COc1cc(O)c(C(CC(=O)N2CCCC(C(C)C)C2)c2ccc3c(c2)OCO3)c(OC)c1` (stereo not drawn) [Compound 11], in that order: 102% and 11 to 50 µM. The matching figures for `COCC1CCCN(C(=O)CC(c2ccc3c(c2)OCO3)c2c(O)cc(OC)cc2OC)C1` (stereo not drawn) [Compound 12]: 90.4% and 11 to 50 µM. `CCC(=O)C1CCCN(C(=O)CC(c2ccc3c(c2)OCO3)c2c(O)cc(OC)cc2OC)C1` (stereo not drawn) [Compound 13] returned an IC50 under setting [1] greater than 50 µM. With `COc1cc(O)c(C(CC(=O)N2CCCC(c3ccccc3)C2)c2ccc3c(c2)OCO3)c(OC)c1` (stereo not drawn) [Compound 14], the Emax came to 70.1%. Also, under setting [1], the IC50 was 11 to 50 µM.

Under setting [1], `COc1cc(O)c(C(CC(=O)N2CCCC(CN3CCCCC3)C2)c2ccc3c(c2)OCO3)c(OC)c1` (stereo not drawn) [Compound 15] registered an IC50 greater than 50 µM. Same read-out and setting: then `COc1cc(O)c(C(CC(=O)N2CCCC(C(=O)c3ccccc3)C2)c2ccc3c(c2)OCO3)c(OC)c1` (stereo not drawn) [Compound 16], with greater than 50 µM; and `COc1cc(O)c(C(CC(=O)N2CCCC(C(=O)N3CCCCC3)C2)c2ccc3c(c2)OCO3)c(OC)c1` (stereo not drawn) [Compound 17], with greater than 50 µM. Consider `COc1cc(O)c(C(CC(=O)N2CCCC(c3nc4ccccc4o3)C2)c2ccc3c(c2)OCO3)c(OC)c1` (stereo not drawn) [Compound 18], for which the Emax was determined as 90.6%. Moreover, the IC50 under setting [1] fell in the range of 11 to 50 µM. For `COc1cc(O)c(C(CC(=O)N2CCCC(COc3ccc(F)cc3)C2)c2ccc3c(c2)OCO3)c(OC)c1` (stereo not drawn) [Compound 19], in that order: 47.5% and 11 to 50 µM. The matching figures for `COc1cc(O)c(C(CC(=O)N2CCCC(CO)C2)c2ccc3c(c2)OCO3)c(OC)c1` (stereo not drawn) [Compound 20]: 44.7% and 11 to 50 µM.

As for `COc1cc(O)c(C(CC(=O)NCc2ccccc2)c2ccc3c(c2)OCO3)c(OC)c1` (stereo not drawn) [Compound 21], under setting [1], the IC50 is greater than 50 µM.

As to `COc1cc(O)c(C(CC(=O)NC2CCC(C)CC2)c2ccc3c(c2)OCO3)c(OC)c1` (stereo not drawn) [Compound 23], the Emax was determined as 76.8%. The compound also gave an IC50 under setting [1] of 11 to 50 µM.

For `COc1cc(O)c(C(CC(=O)NCC2CCCCC2)c2ccc3c(c2)OCO3)c(OC)c1` (stereo not drawn) [Compound 24], the IC50 under setting [1] is greater than 50 µM.

Under setting [1], `COc1cc(O)c(C(CC(=O)NC2CCCc3ccccc32)c2ccc3c(c2)OCO3)c(OC)c1` (stereo not drawn) [Compound 26] had an IC50 greater than 50 µM. Regarding `COc1cc(O)c(C(CC(=O)N2CCc3ccccc3C2)c2ccc3c(c2)OCO3)c(OC)c1` (stereo not drawn) [Compound 27], the Emax amounted to 80.7%. Under setting [1], the IC50 was 11 to 50 µM. `COc1cc(O)c(C(CC(=O)N(C)c2cccc(C)c2)c2ccc3c(c2)OCO3)c(OC)c1` (stereo not drawn) [Compound 28]: the half-maximal inhibitory concentration (IC50) under setting [1] is greater than 50 µM. Same read-out and setting: then `COc1cc(O)c(C(CC(=O)Nc2ccc(C)cc2)c2ccc3c(c2)OCO3)c(OC)c1` (stereo not drawn) [Compound 29], with greater than 50 µM; and `COc1cc(O)c(C(CC(=O)Nc2cccc3ccccc23)c2ccc3c(c2)OCO3)c(OC)c1` (stereo not drawn) [Compound 31], with greater than 50 µM. Same read-out and setting: the result for `COc1cc(O)c(C(CC(=O)N2CCc3ccccc32)c2ccc3c(c2)OCO3)c(OC)c1` (stereo not drawn) [Compound 32] reads greater than 50 µM. The same measure, in the same setting: then `COc1cc(O)c(C(CC(=O)N(Cc2ccccc2)Cc2ccccc2)c2ccc3c(c2)OCO3)c(OC)c1` (stereo not drawn) [Compound 33], with greater than 50 µM. With `COc1cc(O)c(C(CC(=O)N[C@H](C)c2ccccc2)c2ccc3c(c2)OCO3)c(OC)c1` (stereo partly drawn) [Compound 34], the IC50 under setting [1] was greater than 50 µM. Regarding `COc1cc(O)c([C@H](CC(=O)N2CC(C)CC(C)C2)c2ccc3c(c2)OCO3)c(OC)c1` (stereo partly drawn) [Compound 36], the Emax is 91%. Take `COc1cc(O)c(C(CC(=O)N2CCCC2)c2ccc3c(c2)OCO3)c(OC)c1` (stereo not drawn) [Compound 37]: the Emax is 27.1%. In addition, the IC50 under setting [1] lay in the range of 11 to 50 µM. For `CCN(CC)C(=O)CC(c1ccc2c(c1)OCO2)c1c(O)cc(OC)cc1OC` (stereo not drawn) [Compound 39], the Emax is 64.9%. The 50% inhibitory concentration (IC50) under setting [1] was in the range of 11 to 50 µM. `COc1cc(O)c(C(CC(=O)N2CCN(c3ccc(F)cc3)CC2)c2ccc3c(c2)OCO3)c(OC)c1` (stereo not drawn) [Compound 40]: the half-maximal inhibitory concentration (IC50) under setting [1] is greater than 50 µM.

`COc1cc(O)c(C(CC(=O)N2CCC(Cc3ccccc3)CC2)c2ccc(C)cc2)c(OC)c1` (stereo not drawn) [Compound 44]: the 50% inhibitory concentration (IC50) under setting [1] is greater than 50 µM. Same read-out and setting: then `COc1cc(O)c(C(CC(=O)N2CCC(c3ccccc3)CC2)c2ccc(OC)c(OC)c2)c(OC)c1` (stereo not drawn) [Compound 45], with greater than 50 µM; and `COc1ccc(C(CC(=O)Nc2ccc(F)cc2)c2ccccc2)cc1` (stereo not drawn) [Compound 46], with greater than 50 µM; and `Cc1ccc(O)c(C(CC(=O)NC2CCCCC2)c2ccccc2)c1` (stereo not drawn) [Compound 47], with greater than 50 µM. On the same count and under the same terms, the result for `Cc1cccc(C(CC(=O)NCCc2ccccc2)c2ccccc2)c1O` (stereo not drawn) [Compound 48] reads greater than 50 µM.

As to `Cc1cccc(C(CC(=O)NCc2ccco2)c2ccccc2)c1O` (stereo not drawn) [Compound 49], the IC50 under setting [1] was greater than 50 µM. On the same count and under the same terms, the result for `COc1ccccc1C(CC(=O)Nc1ccc(F)cc1)c1ccccc1` (stereo not drawn) [Compound 50] reads greater than 50 µM. On the same count and under the same terms, the result for `COc1ccc(C(CC(=O)N2CCCC(C)C2)c2ccccc2)cc1` (stereo not drawn) [Compound 51] reads greater than 50 µM; that for `COc1ccccc1C(CC(=O)N1CCCC(C)C1)c1ccccc1` (stereo not drawn) [Compound 52], greater than 50 µM; that for `CC1CCCN(C(=O)CC(c2ccccc2)c2ccc(O)cc2)C1` (stereo not drawn) [Compound 53], greater than 50 µM. Still for that read-out and setting: then `CC1CCCN(C(=O)CC(c2ccccc2)c2ccccc2O)C1` (stereo not drawn) [Compound 54], with greater than 50 µM. Consider `COc1ccccc1C(CC(=O)N1C[C@H](C)C[C@H](C)C1)c1ccccc1` (stereo partly drawn) [Compound 55], for which the IC50 reads like this: under setting [1], greater than 50 µM; under setting [2], greater than 20 µM. On to `COc1ccccc1C(CC(=O)N1CCCCC1)c1ccccc1` (stereo not drawn) [Compound 56], for which the Emax was 30.5%. Besides, under setting [1], the IC50 was in the range of 1 to 10 µM. Consider `COc1cc(O)c(C(CC(=O)N2CCCC(C)C2)c2ccc(OC)c(OC)c2)c(OC)c1` (stereo not drawn) [Compound 58], for which the Emax is 98.2%. For the same compound, the IC50 under setting [1] fell in the range of 11 to 50 µM. Turning to `COc1cc(O)c(C(CC(=O)N2CCCC(C)C2)c2ccccc2OC)c(OC)c1` (stereo not drawn) [Compound 59], the IC50 was greater than 50 µM under setting [1] and greater than 20 µM under setting [2]. Take `CCOc1ccc(C(CC(=O)N2CCCC(C)C2)c2c(O)cc(OC)cc2OC)cc1` (stereo not drawn) [Compound 62]: the Emax stood at 100%. Further, the 50% inhibitory concentration (IC50) under setting [1] was 1 to 10 µM. Take `COc1cc(O)c(C(CC(=O)N2CCCC(C)C2)c2ccc(C(C)C)cc2)c(OC)c1` (stereo not drawn) [Compound 64]: the Emax was 99.3%. Under setting [1], this compound had an IC50 of 1 to 10 µM. Also, under setting [2], the half-inhibitory concentration (IC50) lay within 1 to 10 µM. Regarding `COc1cc(O)c(C(CC(=O)N2CCCC(C)C2)c2ccc3ccccc3c2)c(OC)c1` (stereo not drawn) [Compound 65], the Emax is 92.4%. This compound displayed a concentration for half-maximal inhibition (IC50) under setting [1] of 1 to 10 µM. Moreover, under setting [2], the concentration for half-maximal inhibition (IC50) lay in the range of 1 to 10 µM. Turning to `COc1cc(O)c(C(CC(=O)N2CCCC(C)C2)c2cccc3ccccc23)c(OC)c1` (stereo not drawn) [Compound 66], the Emax was 52%. The same compound returned an IC50 under setting [1] of 11 to 50 µM. Under setting [2], the IC50 was in the range of 11 to 20 µM. For `COc1cc(O)c(C(CC(=O)N2CCCC(C)C2)c2ccc(-c3ccccc3)cc2)c(OC)c1` (stereo not drawn) [Compound 67], in that order: 72%, 11 to 50 µM and 11 to 20 µM.

For `CC1CCCN(C(=O)CC(c2ccc3c(c2)OCO3)c2ccc3ccccc3c2O)C1` (stereo not drawn) [Compound 68], the IC50 under setting [1] is greater than 50 µM. `COc1cc(O)c(CCC(=O)N2CCCC(C)C2)c(OC)c1` (stereo not drawn) [Compound 71] showed an IC50 under setting [1] greater than 50 µM. In the case of `COc1cc(O)c(C(CC(=O)N2CC(C)CC(C)C2)c2ccc3c(c2)OCCCO3)c(OC)c1` (stereo not drawn) [Compound 80], the Emax amounted to 94%. For the same compound, the 50% inhibitory concentration (IC50) under setting [1] is less than 1 µM. Under setting [1], `COc1cc(O)c(C(CC(=O)N2CC(C)CC(C)C2)c2ccc(S(=O)(=O)N(C)C)cc2)c(OC)c1` (stereo not drawn) [Compound 84, 4-(3-(3,5-Dimethylpiperidin-1-yl)-1-(2-hydroxy-4,6-dimethoxyphenyl)-3-oxopropyl)-N,N-dimethylbenzenesulfonamide] showed an IC50 of 11 to 50 µM. Consider `COc1cc(O)c(C(CC(=O)N2CC(C)CC(C)C2)c2cccc(Br)c2)c(OC)c1` (stereo not drawn) [Compound 85, 3-(3-Bromophenyl)-1-(3,5-dimethylpiperidin-1-yl)-3-(2-hydroxy-4,6-dimethoxyphenyl)propan-1-one], for which the Emax was found to be 103%. This compound also had an IC50 under setting [1] of 1 to 10 µM.

Consider `COc1cc(O)c(C(CC(=O)N2CC(C)CC(C)C2)c2cccc(C#N)c2)c(OC)c1` (stereo not drawn) [Compound 87, 3-(3-(3,5-Dimethylpiperidin-1-yl)-1-(2-hydroxy-4,6-dimethoxyphenyl)-3-oxopropyl)benzonitrile], for which the Emax was determined as 96.6%. Under setting [1], this compound registered an IC50 of less than 1 µM.
